Assay results from patent US10738057B2, “Tertiary alcohols as PI3K-γ inhibitors” (Incyte Corporation, priority 2017, dated 2020).
Structures can show the parent of a compound that is named as a salt.

How the values were obtained:
[1] = target: PI3Kδ (p110δ/p85α) Recombinant Human Protein (Homo sapiens (Human), UniProt O00329); test: PI3Kδ scintillation proximity assay; type: biochemical; settings: 20 μM PIP2, 2 μM ATP, 3.4 nM PI3Kδ, 120 min, room temperature; read-out: PI3Kδ IC50
In short: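 Recombinant human p110δ/p85α was run at room temperature in 20 mM MOPS pH 6.7, 10 mM MgCl2, 5 mM DTT, 0.03% CHAPS, 2% DMSO. Substrates were 20 µM PIP2 and 2 µM ATP with [γ-33P]ATP. Product was captured overnight on WGA SPA beads and counted by scintillation; IC50 fitted from percent of solvent control versus log concentration.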

[2] = system: Phosphorylated Ribosomal Protein S6 (RPS6) in THP-1 cells; test: THP-1 RPS6 ELISA assay; type: cell-based, Human; settings: Homo sapiens, THP-1, THP-1 cells, serum starved, 2 h compound, 10 nM MCP-1 for 15 min, phospho-RPS6 ELISA; read-out: PI3Kγ_THP1_RPS6_ELISA IC50
In short: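 Phospho-RPS6 in lysates measured by ELISA at 450 nm, corrected at 540 nm, after MCP-1 challenge (10 nM, 15 min) of THP-1 cells that were starved overnight and exposed to test compound for 2 h at 37° C, 2×10^5 cells/well. Curve fit of percent inhibition gives IC50.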

[3] = target: PI3Kγ (p110γ) Recombinant Human Protein (Homo sapiens (Human), UniProt P48736); test: PI3K-γ scintillation proximity assay; type: biochemical; settings: 20 μM PIP2, 2 μM ATP, 13 nM PI3Kγ, 120 min, room temperature
In short: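 Radiometric SPA in 20 mM MOPS pH 6.7, 10 mM MgCl2, 5 mM DTT, 0.03% CHAPS, 2% DMSO. Stopped with EDTA and WGA SPA beads for scintillation counting. IC50 fitted from % solvent-control activity versus log concentration.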

Sequence of PI3Kδ (p110δ/p85α) Recombinant Human Protein (O00329 whole entry): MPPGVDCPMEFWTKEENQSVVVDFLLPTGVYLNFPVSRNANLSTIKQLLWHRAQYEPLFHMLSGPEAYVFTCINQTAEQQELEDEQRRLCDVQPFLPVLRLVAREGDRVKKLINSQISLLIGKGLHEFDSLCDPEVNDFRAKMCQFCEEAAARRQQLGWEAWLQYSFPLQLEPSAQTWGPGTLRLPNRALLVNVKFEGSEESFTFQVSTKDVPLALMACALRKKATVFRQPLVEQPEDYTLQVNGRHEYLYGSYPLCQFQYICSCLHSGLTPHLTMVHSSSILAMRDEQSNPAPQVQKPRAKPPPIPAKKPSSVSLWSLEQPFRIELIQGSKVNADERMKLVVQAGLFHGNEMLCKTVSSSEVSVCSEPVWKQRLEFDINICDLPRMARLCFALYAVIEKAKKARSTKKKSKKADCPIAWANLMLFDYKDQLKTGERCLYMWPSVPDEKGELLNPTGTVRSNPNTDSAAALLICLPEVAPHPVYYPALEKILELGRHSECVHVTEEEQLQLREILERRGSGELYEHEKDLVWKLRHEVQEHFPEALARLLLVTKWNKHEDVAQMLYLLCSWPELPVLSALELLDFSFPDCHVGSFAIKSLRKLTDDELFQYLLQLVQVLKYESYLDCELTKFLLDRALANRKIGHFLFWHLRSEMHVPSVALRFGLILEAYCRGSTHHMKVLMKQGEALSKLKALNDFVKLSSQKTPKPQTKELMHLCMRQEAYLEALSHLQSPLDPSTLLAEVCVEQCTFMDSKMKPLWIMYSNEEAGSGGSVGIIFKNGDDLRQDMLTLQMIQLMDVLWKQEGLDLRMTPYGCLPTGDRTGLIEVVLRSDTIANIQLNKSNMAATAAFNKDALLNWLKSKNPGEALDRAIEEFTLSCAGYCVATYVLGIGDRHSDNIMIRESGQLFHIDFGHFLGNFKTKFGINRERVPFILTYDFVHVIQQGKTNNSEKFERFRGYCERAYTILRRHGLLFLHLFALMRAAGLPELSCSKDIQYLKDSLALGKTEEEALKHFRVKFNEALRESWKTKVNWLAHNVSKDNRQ
Sequence of PI3Kδ (p110δ/p85α) Recombinant Human Protein (P27986 whole entry partner): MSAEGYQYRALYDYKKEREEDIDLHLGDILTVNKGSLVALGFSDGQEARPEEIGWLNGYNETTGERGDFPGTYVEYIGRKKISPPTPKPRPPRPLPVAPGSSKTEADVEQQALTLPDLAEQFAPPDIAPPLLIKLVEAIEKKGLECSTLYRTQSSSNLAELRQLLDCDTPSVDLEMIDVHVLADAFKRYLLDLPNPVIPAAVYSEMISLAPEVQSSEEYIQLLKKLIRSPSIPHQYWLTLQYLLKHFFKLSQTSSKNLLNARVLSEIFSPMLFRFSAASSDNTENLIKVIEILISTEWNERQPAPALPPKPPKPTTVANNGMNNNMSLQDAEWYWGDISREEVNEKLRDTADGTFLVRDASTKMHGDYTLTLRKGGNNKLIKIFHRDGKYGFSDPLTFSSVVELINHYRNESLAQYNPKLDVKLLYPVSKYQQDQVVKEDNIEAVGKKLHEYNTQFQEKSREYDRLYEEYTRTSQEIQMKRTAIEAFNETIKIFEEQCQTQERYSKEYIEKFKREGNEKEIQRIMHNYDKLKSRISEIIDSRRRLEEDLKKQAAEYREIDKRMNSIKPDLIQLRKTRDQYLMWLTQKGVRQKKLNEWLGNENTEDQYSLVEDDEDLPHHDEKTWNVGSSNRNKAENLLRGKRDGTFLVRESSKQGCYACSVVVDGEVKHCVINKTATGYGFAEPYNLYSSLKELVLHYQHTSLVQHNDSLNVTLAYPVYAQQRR
Sequence of PI3Kγ (p110γ) Recombinant Human Protein (P48736 whole entry): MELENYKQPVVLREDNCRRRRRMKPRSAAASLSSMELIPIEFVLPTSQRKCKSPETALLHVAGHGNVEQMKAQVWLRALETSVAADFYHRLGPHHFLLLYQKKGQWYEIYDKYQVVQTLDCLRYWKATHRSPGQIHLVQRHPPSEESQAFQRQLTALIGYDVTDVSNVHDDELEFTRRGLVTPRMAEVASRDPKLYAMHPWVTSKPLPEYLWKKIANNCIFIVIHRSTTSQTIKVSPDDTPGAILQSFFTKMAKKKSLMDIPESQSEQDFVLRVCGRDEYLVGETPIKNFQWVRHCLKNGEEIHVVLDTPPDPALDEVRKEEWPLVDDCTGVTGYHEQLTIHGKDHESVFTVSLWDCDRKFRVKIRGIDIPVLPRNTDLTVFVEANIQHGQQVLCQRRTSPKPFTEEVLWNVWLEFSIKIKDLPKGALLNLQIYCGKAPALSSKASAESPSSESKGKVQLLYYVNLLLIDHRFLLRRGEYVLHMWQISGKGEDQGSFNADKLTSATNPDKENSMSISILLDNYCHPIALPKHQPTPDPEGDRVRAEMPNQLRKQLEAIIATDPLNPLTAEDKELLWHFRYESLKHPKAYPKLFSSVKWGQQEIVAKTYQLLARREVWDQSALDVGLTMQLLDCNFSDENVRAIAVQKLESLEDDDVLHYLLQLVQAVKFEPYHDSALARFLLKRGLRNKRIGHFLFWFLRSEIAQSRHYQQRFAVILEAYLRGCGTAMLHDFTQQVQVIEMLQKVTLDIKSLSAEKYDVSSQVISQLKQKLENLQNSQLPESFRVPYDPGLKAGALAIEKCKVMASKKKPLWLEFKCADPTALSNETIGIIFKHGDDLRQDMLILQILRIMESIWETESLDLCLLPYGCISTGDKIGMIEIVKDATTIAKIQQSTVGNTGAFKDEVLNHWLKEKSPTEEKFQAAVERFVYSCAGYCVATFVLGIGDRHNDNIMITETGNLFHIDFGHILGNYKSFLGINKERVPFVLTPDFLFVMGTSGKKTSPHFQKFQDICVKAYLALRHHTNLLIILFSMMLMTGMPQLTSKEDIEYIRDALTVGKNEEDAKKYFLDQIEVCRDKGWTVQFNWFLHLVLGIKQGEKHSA

SMILES	IC50 [1] [µM]	IC50 [2] [µM]	IC50 [3] [µM]
Cc1ccc(C2(O)CCCC2F)cc1-c1cnc2c(N)nc(C(F)(F)F)cn12 (stereo not drawn) [Example 61, 1-(3-(8-Amino-6-(trifluoromethyl)imidazo[1,2-a]pyrazin-3-yl)-4-methylphenyl)-2-fluorocyclopentan-1-ol trifluoroacetate salt]	0.1 to 0.5	0.1 to 0.5	< 0.1
[2H]C([2H])([2H])c1ccc(C(C)(O)C(F)(F)F)cc1-c1cnc2c(N)nc(C(=O)NCC(C)(C)O)cn12 (stereo not drawn) [Example 81, 8-Amino-N-(2-hydroxy-2-methylpropyl)-3-(2-(methyl-d3)-5-(1,1,1-trifluoro-2-hydroxypropan-2-yl)phenyl)imidazo[1,2-a]pyrazine-6-carboxamide]	< 0.1	0.1 to 0.5	< 0.1
Cc1ccc(C(O)(C(N)=O)C(F)(F)F)cc1-c1cnc2c(N)nc(C(=O)NC3(C4CC4)CCOC3)cn12 (stereo not drawn) [Example 83, 8-Amino-3-(5-(3-amino-1,1,1-trifluoro-2-hydroxy-3-oxopropan-2-yl)-2-methylphenyl)-N-(3-cyclopropyltetrahydrofuran-3-yl)imidazo[1,2-a]pyrazine-6-carboxamide trifluoroacetate salt]	0.1 to 0.5	< 0.1	< 0.1
Cc1ccc(C(O)(C(N)=O)C(F)(F)F)cc1-c1cnc2c(N)nc(C(=O)NC3(C)CCOC3C)cn12 (stereo not drawn) [Example 84, 8-Amino-3-(5-(3-amino-1,1,1-trifluoro-2-hydroxy-3-oxopropan-2-yl)-2-methylphenyl)-N-(2,3-dimethyltetrahydrofuran-3-yl)imidazo[1,2-a]pyrazine-6-carboxamide, trifluoroacetate]	0.1 to 0.5	0.1 to 0.5	< 0.1
Cc1ccc(C(O)(C(N)=O)C(F)(F)F)cc1-c1cnc2c(N)nc(C(=O)NC3(C(F)(F)F)CCOCC3)cn12 (stereo not drawn) [Example 85, 8-Amino-3-(5-(3-amino-1,1,1-trifluoro-2-hydroxy-3-oxopropan-2-yl)-2-methylphenyl)-N-(4-(trifluoromethyl)tetrahydro-2H-pyran-4-yl)imidazo[1,2-a]pyrazine-6-carboxamide, trifluoroacetate]	0.5 to 2	0.1 to 0.5	< 0.1
[2H]C([2H])([2H])c1ccc(C(C)(O)C(F)(F)F)cc1-c1cnc2c(N)nc(-c3cnn4c3CCC4)cn12 (stereo not drawn) [Example 87, 2-(3-(8-Amino-6-(5,6-dihydro-4H-pyrrolo[1,2-b]pyrazol-3-yl)imidazo[1,2-a]pyrazin-3-yl)-4-(methyl-d3)phenyl)-1,1,1-trifluoropropan-2-ol, trifluoroacetate]	< 0.1	0.1 to 0.5	< 0.1
[2H]C([2H])([2H])c1ccc(C(C)(O)C(F)(F)F)cc1-c1cnc2c(N)nc(-c3cnn(C4(CC#N)CC(C(=O)OC)C4)c3)cn12 (stereo not drawn) [Example 88, Methyl 3-(4-(8-amino-3-(2-(methyl-d3)-5-(1,1,1-trifluoro-2-hydroxypropan-2-yl)phenyl)imidazo[1,2-a]pyrazin-6-yl)-1H-pyrazol-1-yl)-3-(cyanomethyl)cyclobutane-1-carboxylate, trifluoroacetate]	0.1 to 0.5	0.1 to 0.5	< 0.1
Cc1ccc(C(C)(O)C(F)F)cc1-c1cnc2c(N)nc(-c3cnn(C4(CC#N)CN(C(=O)C5CCC5)C4)c3)cn12 (stereo not drawn) [Example 100, 2-(3-(4-(8-amino-3-(5-(1,1-difluoro-2-hydroxypropan-2-yl)-2-methylphenyl)imidazo[1,2-a]pyrazin-6-yl)-1H-pyrazol-1-yl)-1-(cyclobutanecarbonyl)azetidin-3-yl)acetonitrile]	0.1 to 0.5	0.1 to 0.5	< 0.1
Cc1ccc(C(C)(O)C(F)F)cc1-c1cnc2c(N)nc(-c3cncc(S(C)(=O)=O)c3)cn12 (stereo not drawn) [Example 106, 2-(3-(8-Amino-6-(5-(methylsulfonyl)pyridin-3-yl)imidazo[1,2-a]pyrazin-3-yl)-4-methylphenyl)-1,1-difluoropropan-2-ol]	0.1 to 0.5	0.1 to 0.5	< 0.1
Cc1nc(N)c2ncc(-c3cc(C(O)(C(F)F)C(F)F)ccc3C)n2n1 [Example 112, 2-(3-(4-Amino-2-methylimidazo[2,1-f][1,2,4]triazin-7-yl)-4-methylphenyl)-1,1,3,3-tetrafluoropropan-2-ol trifluoroacetate salt]	0.5 to 2	0.5 to 1	< 0.1
CNC(=O)C(O)(c1ccc(C)c(-c2cnc3c(N)nc(C(F)(F)F)cn23)c1)C(F)(F)F (stereo not drawn) [Example 118, 2-(3-(8-Amino-6-(trifluoromethyl)imidazo[1,2-a]pyrazin-3-yl)-4-methylphenyl)-3,3,3-trifluoro-2-hydroxy-N-methylpropanamide]	< 0.1	< 0.1	< 0.1
Cc1ccc(C(O)(C(=O)NC23CC(C2)C3)C(F)(F)F)cc1-c1cnc2c(N)nc(C(F)(F)F)cn12 (stereo not drawn) [Example 129, 2-(3-(8-Amino-6-(trifluoromethyl)imidazo[1,2-a]pyrazin-3-yl)-4-methylphenyl)-N-(bicyclo[1.1.1]pentan-1-yl)-3,3,3-trifluoro-2-hydroxypropanamide trifluoroacetate salt]	< 0.1	< 0.1	< 0.1

The next lines start with the values.

IC50 [1] [µM]	IC50 [2] [µM]	IC50 [3] [µM]	SMILES
0.1 to 0.5	0.1 to 0.5	< 0.1	CNC(=O)C1CC1c1cn2c(-c3cc(C(C)(O)C(F)F)ccc3C)cnc2c(N)n1 (stereo not drawn) [Example 76, 2-(8-Amino-3-(5-(1,1-difluoro-2-hydroxypropan-2-yl)-2-methylphenyl)imidazo[1,2-a]pyrazin-6-yl)-N-methylcyclopropane-1-carboxamide]
0.1 to 0.5	0.1 to 0.5	< 0.1	Cc1ccc(C(C)(O)C(F)F)cc1-c1cnc2c(N)nc(C3CC3C(=O)NC(C)(C)CO)cn12 (stereo not drawn) [Example 78, 2-(8-Amino-3-(5-(1,1-difluoro-2-hydroxypropan-2-yl)-2-methylphenyl)imidazo[1,2-a]pyrazin-6-yl)-N-(1-hydroxy-2-methylpropan-2-yl)cyclopropane-1-carboxamide]
< 0.1	< 0.1	< 0.1	Cc1ccc(C(O)(C(N)=O)C(F)(F)F)cc1-c1cnc2c(N)nc(C(F)(F)F)cn12 (stereo not drawn) [Example 82, 2-(3-(8-Amino-6-(trifluoromethyl)imidazo[1,2-a]pyrazin-3-yl)-4-methylphenyl)-3,3,3-trifluoro-2-hydroxypropanamide]
0.1 to 0.5	0.1 to 0.5	< 0.1	[2H]C([2H])([2H])c1ccc(C(C)(O)C(F)(F)F)cc1-c1cnc2c(N)nc(-c3cnn(C(CC#N)C4CCC4)c3)cn12 (stereo not drawn) [Example 86, 3-(4-(8-Amino-3-(2-(methyl-d3)-5-(1,1,1-trifluoro-2-hydroxypropan-2-yl)phenyl)imidazo[1,2-a]pyrazin-6-yl)-1H-pyrazol-1-yl)-3-cyclobutylpropanenitrile, trifluoroacetate]
< 0.1	< 0.1	< 0.1	Cc1ccc(C(O)(C(N)=O)C(F)F)cc1-c1cnc2c(N)nc(C(F)(F)F)cn12 (stereo not drawn) [Example 89, 2-(3-(8-Amino-6-(trifluoromethyl)imidazo[1,2-a]pyrazin-3-yl)-4-methylphenyl)-3,3-difluoro-2-hydroxypropanamide]
< 0.1	< 0.1	< 0.1	Cc1ccc(C(C)(O)C(F)F)cc1-c1cnc2c(N)nc(-c3ccc(B(O)O)cc3)cn12 (stereo not drawn) [Example 108, (4-(8-amino-3-(5-(1,1-difluoro-2-hydroxypropan-2-yl)-2-methylphenyl)imidazo[1,2-a]pyrazin-6-yl)phenyl)boronic acid trifluoroacetate salt]
0.1 to 0.5	> 1	< 0.1	Cc1ccc(C(O)(C(=O)O)C(F)(F)F)cc1-c1cnc2c(N)nc(C(F)(F)F)cn12 (stereo not drawn) [Example 120, 2-(3-(8-amino-6-(trifluoromethyl)imidazo[1,2-a]pyrazin-3-yl)-4-methylphenyl)-3,3,3-trifluoro-2-hydroxypropanoic acid]
< 0.1	< 0.1	< 0.1	Cc1ccc(C(O)(C(=O)NC2(C)CNC2)C(F)(F)F)cc1-c1cnc2c(N)nc(C(F)(F)F)cn12 (stereo not drawn) [Example 128, 2-(3-(8-Amino-6-(trifluoromethyl)imidazo[1,2-a]pyrazin-3-yl)-4-methylphenyl)-3,3,3-trifluoro-2-hydroxy-N-(3-methylazetidin-3-yl)propanamide trifluoroacetate salt]
0.1 to 0.5	0.1 to 0.5	< 0.1	Cc1ccc(C(C)(O)C(F)(F)F)cc1-c1cnc2c(N)nc(C#CC3CC3)cn12 (stereo not drawn) [Example 162, 2-(3-(8-Amino-6-(cyclopropylethynyl)imidazo[1,2-a]pyrazin-3-yl)-4-methylphenyl)-1,1,1-trifluoropropan-2-ol trifluoroacetate salt]
